The nature of the series: oxygen carrying capacity of nutrient formulation. Format: physicochemical. To be noted: F44E formulations compared with the perfluorodecalin nutrient solution of Bell et al., Neurology 37:133, 1987. From the text: where m and n or independently at least 1 and m+n equals 6 to 10. Preferably, the double bond is trans. One preferred poly-fluorinated, oxygen-carrying compound is trans-Bis-perfluorobutyl ethylene (m and n each equal 4), which is also known as F44E. F44E formulations have a 25% greater oxygen carrying capacity than that of a prior nutrient solution made with perfluorodecalin, Bell et al., Neurology 37:133, 1987. Formulations comprising F44E are less viscous and relatively easier to perfuse.

On to `FC(F)(F)C(F)(F)C(F)(F)C(F)(F)/C=C/C(F)(F)C(F)(F)C(F)(F)C(F)(F)F` [F44E, trans-Bis-perfluorobutyl ethylene], for which the “greater oxygen carrying capacity than that of a prior nutrient solution made with perfluorodecalin” value is reported as 25%.
